Tested on: L1210
Assay: Cytotoxicity against mouse L1210 cells
Format: functional, cell-based

| SMILES | IC50 |
| --- | --- |
| COC(=O)c1cc2c3c(cc(O)c2[nH]1)N(C(=O)c1cc2cc(OC)ccc2[nH]1)C[C@H]3CCl | 21 pM |
| COC(=O)c1cc2c3c(cc(O)c2[nH]1)N(C(=O)c1cc2cc(C(C)=O)ccc2[nH]1)C[C@H]3CCl | 38 pM |
| COC(=O)c1cc2c3c(cc(O)c2[nH]1)N(C(=O)c1cc2cc(OC(F)(F)F)ccc2[nH]1)C[C@H]3CCl | 85 pM |
| COC(=O)c1cc2c3c(cc(O)c2[nH]1)N(C(=O)c1cc2cc(C(F)(F)F)ccc2[nH]1)C[C@H]3CCl | 75 pM |
| COC(=O)c1cc2c([nH]1)C(=O)C=C1N(C(=O)c3cc4cc(C)ccc4[nH]3)C[C@H]3C[C@]123 | 77 pM |
| COC(=O)c1cc2c([nH]1)C(=O)C=C1N(C(=O)c3cc4cc(O)ccc4[nH]3)C[C@H]3C[C@]123 | 53 pM |
| COC(=O)c1cc2c3c(cc(O)c2[nH]1)N(C(=O)c1cc2cc(O)ccc2[nH]1)C[C@H]3CCl | 50 pM |
| COC(=O)c1ccc2[nH]c(C(=O)N3C[C@H]4C[C@@]45C3=CC(=O)c3[nH]c(C(=O)OC)cc35)cc2c1 | 47 pM |
| COC(=O)c1cc2c([nH]1)C(=O)C=C1N(C(=O)c3cc4cc(C#N)ccc4[nH]3)C[C@H]3C[C@]123 | 7 pM |
| COC(=O)c1cc2c([nH]1)C(=O)C=C1N(C(=O)c3cc4cc(C(C)=O)ccc4[nH]3)C[C@H]3C[C@]123 | 43 pM |
| COC(=O)c1cc2c([nH]1)C(=O)C=C1N(C(=O)c3cc4cc(OC(F)(F)F)ccc4[nH]3)C[C@H]3C[C@]123 | 49 pM |
| COC(=O)c1cc2c3c(cc(O)c2[nH]1)N(C(=O)c1cc2ccccc2[nH]1)C[C@H]3CCl | 72 pM |
| COC(=O)c1cc2c3c(cc(O)c2[nH]1)N(C(=O)c1cc2cc(C)ccc2[nH]1)C[C@H]3CCl | 78 pM |
| COC(=O)c1cc2c([nH]1)C(=O)C=C1N(C(=O)c3cc4cc(OC)c(O)cc4[nH]3)C[C@H]3C[C@]123 | 7 pM |
| COC(=O)c1cc2c([nH]1)C(=O)C=C1N(C(=O)c3cc4cc(O)c(OC)cc4[nH]3)C[C@H]3C[C@]123 | 33 pM |
| COC(=O)c1ccc2[nH]c(C(=O)N3C[C@@H](CCl)c4c3cc(O)c3[nH]c(C(=O)OC)cc43)cc2c1 | 48 pM |
| COC(=O)c1cc2c3c(cc(O)c2[nH]1)N(C(=O)c1cc2cc(F)ccc2[nH]1)C[C@H]3CCl | 79 pM |
| COC(=O)c1cc2c3c(cc(O)c2[nH]1)N(C(=O)c1cc2cc(NC(C)=O)ccc2[nH]1)C[C@H]3CCl | 81 pM |
| COC(=O)c1cc2c3c(cc(O)c2[nH]1)N(C(=O)c1cc2cc(S(C)(=O)=O)ccc2[nH]1)C[C@H]3CCl | 58 pM |
| COC(=O)c1cc2c([nH]1)C(=O)C=C1N(C(=O)c3cc4cc(C(F)(F)F)ccc4[nH]3)C[C@H]3C[C@]123 | 65 pM |
| CNC(=O)c1ccc2[nH]c(C(=O)N3C[C@H]4C[C@@]45C3=CC(=O)c3[nH]c(C(=O)OC)cc35)cc2c1 | 70 pM |
| COC(=O)c1cc2c([nH]1)C(=O)C=C1N(C(=O)c3cc4cc(F)ccc4[nH]3)C[C@H]3C[C@]123 | 54 pM |
| CNC(=O)c1ccc2[nH]c(C(=O)N3C[C@@H](CCl)c4c3cc(O)c3[nH]c(C(=O)OC)cc43)cc2c1 | 61 pM |
| COC(=O)c1cc2c([nH]1)C(=O)C=C1N(C(=O)c3cc4cc([N+](=O)[O-])ccc4[nH]3)C[C@H]3C[C@]123 | 41 pM |
| COC(=O)c1cc2c([nH]1)C(=O)C=C1N(C(=O)c3cc4cc(NC(C)=O)ccc4[nH]3)C[C@H]3C[C@]123 | 83 pM |
| COC(=O)c1cc2c([nH]1)C(=O)C=C1N(C(=O)c3cc4cc(S(C)(=O)=O)ccc4[nH]3)C[C@H]3C[C@]123 | 58 pM |
| COC(=O)c1cc2c3c(cc(O)c2[nH]1)N(C(=O)c1cc2cc(C#N)ccc2[nH]1)C[C@H]3CCl | 9 pM |
| COC(=O)c1cc2c([nH]1)C(=O)C=C1N(C(=O)c3cc4cc(OC)ccc4[nH]3)C[C@H]3C[C@]123 | 7.5 pM |
| COC(=O)c1cc2c([nH]1)C(=O)C=C1N(C(=O)c3cc4ccccc4[nH]3)C[C@H]3C[C@]123 | 68 pM |
| COC(=O)c1cc2c([nH]1)C(=O)C=C1N(C(=O)c3cc4cc(OC)c(OC)c(OC)c4[nH]3)C[C@H]3C[C@]123 [DUOCARMYCIN] | 6 pM |
